Measurements taken from PMC4476799, “Englerin A Agonizes the TRPC4/C5 Cation Channels to Inhibit Tumor Cell Line Proliferation” (PLoS ONE, 2015).
Where two headings read alike, the source gives them in different places.

Tested on: cancer cell lines from the cancer cell line encyclopedia (CCLE)
Test: Cell line profiling (CLiP) proliferation experiment
Type: cell-based
Conditions: Homo sapiens; for IC50: read-out: Crossing Point; for EC50: read-out: Inflection Point
Procedure: Compound profiling experiment and data analysis was performed as previously described. Data was imported and plotted using the Tibco Spotfire DXP application. Lines were categorized as sensitive, intermediate and refractory as follows: Amax<-40 & Inflection Point <2 ~ Sensitive, Amax>-20 & Inflection Point >10 ~ Refractory, all else were called Intermediate. Cancer Cell line HG-U133 Plus 2 data was processed and normalized as described. […] Five sets of refractory cell lines were generated from the pool of refractory cell lines trying to match the lineage composition of the set of sensitive cell lines. The limma package was used as previously described to perform the statistical comparison.

[1] = HCC1187, cell line HCC1187, breast
[2] = HCC1954, cell line HCC1954, breast
[3] = HCT-15, cell line HCT-15, large_intestine
[4] = HCT-116, cell line HCT 116, large_intestine
[5] = HEC-1-A, cell line HEC-1-A, endometrium
[6] = HPBALL, cell line HPB-ALL, haematopoietic_and_lymphoid_tissue
[7] = Hs 294T, cell line Hs 294T, skin
[8] = Hs 695T, cell line Hs 695T, skin
[9] = KYSE-150, KYSE-150 (oesophagus)
[10] = L-363, L-363 (haematopoietic_and_lymphoid_tissue)
[11] = LN-18, LN-18 (central_nervous_system)
[12] = LN-229, LN-229 (central_nervous_system)
[13] = LS180, LS 180 (large_intestine)
[14] = LS-411N, LS411N (large_intestine)
[15] = MC116, MC116 (haematopoietic_and_lymphoid_tissue)
[16] = MIA PaCa-2, MIA PaCa-2 (pancreas)

CC(C)[C@@]12C[C@@H](O)[C@@](C)(O1)[C@@H]1CC[C@@H](C)[C@H]1[C@@H]2OC(=O)/C=C/c1ccccc1 [Englerin B]
21 µM: IC50 (JVM-2, JVM-2) | EC50 (JVM-2, JVM-2) | IC50 (JVM-2, JVM-2 cells) | EC50 (JVM-2, JVM-2 cells)
27.2 µM: IC50 (Lu-99, LU99 (lung))
10.9 µM: IC50 (HGC-27, cell line HGC-27, stomach)
7.57 µM: EC50 (HuH-1, cell line huH-1, liver)
24.8 µM: IC50 (KMS-12-BM, KMS-12-BM cells) | EC50 (KMS-12-BM, KMS-12-BM cells) | IC50 (KMS-12-BM) | EC50 (KMS-12-BM)
1.04 µM: EC50 (IPC-298, IPC-298)
16.7 µM: EC50 [5]
11.3 µM: EC50 [2] | EC50 (HCC1954, cell line HCC1954) | EC50 [16]
25.1 µM: IC50 (HCC1419, cell line HCC1419, breast)
19 µM: IC50 (HT-29, cell line HT-29, large_intestine)
9.57 µM: EC50 (K562, K-562)
16.3 µM: IC50 [14] | EC50 [14]
21.7 µM: IC50 (KYSE-410, KYSE-410 (oesophagus))
14.1 µM: IC50 [15] | EC50 [15]
18.2 µM: IC50 (MDA-MB-453, MDA-MB-453 (breast))
20.1 µM: IC50 (HRT-18, cell line HRT-18, large_intestine) | EC50 (J82, J82)
11.4 µM: IC50 (KARPAS-422, KARPAS-422) | EC50 (KARPAS-422, KARPAS-422) | IC50 (KARPAS-422, KARPAS-422 cells) | EC50 (KARPAS-422, KARPAS-422 cells)
13.9 µM: IC50 [2] | IC50 [11]
8.21 µM: IC50 (JeKo-1, JeKo-1)
8.08 µM: EC50 [1]
12.6 µM: EC50 (LoVo, LoVo (large_intestine))
12.7 µM: EC50 (KARPAS-299, KARPAS-299)
13.3 µM: EC50 [11] | EC50 (LN-18, LN-18 cells)
22.9 µM: IC50 (KYSE-520, KYSE-520 (oesophagus))
13.2 µM: IC50 (KARPAS-299, KARPAS-299) | EC50 (KMS-11, KMS-11) | EC50 (KMS-11, KMS-11 cells) | EC50 (KU812, KU812) | EC50 (KU812, KU812 cells)
18.8 µM: EC50 (HMCB, cell line HMCB, skin) | EC50 (HMCB, cell line HMCB) | EC50 (KATO III, cell line KATO III) | EC50 (KATO III)
13.5 µM: IC50 (KCL-22, KCL-22) | IC50 (KCL-22, KCL-22 cells) | IC50 (KMS-11, KMS-11)
22.2 µM: IC50 (MEC1, MEC-1 (haematopoietic_and_lymphoid_tissue))
8.76 µM: IC50 (KU812, KU812)
11.7 µM: EC50 [6]
11.1 µM: EC50 (KLE)
22.1 µM: EC50 [12]
8.15 µM: EC50 [4]
12.9 µM: EC50 (KCL-22, KCL-22) | EC50 (KCL-22, KCL-22 cells) | EC50 (Lu-99, LU99 (lung))
28.7 µM: IC50 (HCC1569, cell line HCC1569, breast)
28.9 µM: IC50 (HCC1937, cell line HCC1937, breast)
10.4 µM: EC50 [3]
29.2 µM: IC50 (MEG-01, MEG-01 (haematopoietic_and_lymphoid_tissue))
18.7 µM: IC50 [10] | IC50 (LP-1, LP-1 cells) | EC50 (LP-1, LP-1 cells)
19.4 µM: IC50 (KATO III)
27.5 µM: EC50 [10]
7.64 µM: EC50 (JeKo-1, JeKo-1) | EC50 (JeKo-1, JeKo-1 cells)
12 µM: EC50 [9]
24.2 µM: IC50 (IMR-32, IMR-32) | EC50 (IMR-32, IMR-32) | IC50 (IMR-32, IMR-32 cells) | EC50 (IMR-32, IMR-32 cells)
23.1 µM: IC50 (MFE-296, cell line MFE-296 (endometrium))
17.5 µM: IC50 (HPBALL, cell line HPB-ALL (haematopoietic_and_lymphoid_tissue, acute_lymphoblastic_T_cell_leukaemia)) | IC50 [6]
9.77 µM: EC50 [13] | EC50 (LS180, LS 180 cells)
24.3 µM: IC50 (IGR-37, cell line IGR-37, skin)
10.8 µM: EC50 (MCF7, MCF7 (breast)) | EC50 (MCF7, MCF7 cells)
22.6 µM: EC50 [7]
13.8 µM: IC50 [1]
28.2 µM: IC50 (KYSE-70, KYSE-70 (oesophagus))
21.6 µM: EC50 [8]
> 30 µM: IC50 (HCC1143, cell line HCC1143) | IC50 (HCC1395, cell line HCC1395, breast) | IC50 (HCC1395, cell line HCC1395) | IC50 (HCC1428, cell line HCC1428, breast) | IC50 (HCC1428, cell line HCC1428) | IC50 (HCC1806, cell line HCC1806, breast) | IC50 (HCC1806, cell line HCC1806) | IC50 (HCC2218, cell line HCC2218, breast) | IC50 (HCC2218, cell line HCC2218) | IC50 [3] | IC50 (HCT-15, cell line HCT-15) | IC50 [4] | IC50 (HCT-116, cell line HCT 116) | IC50 [5] | IC50 (HEC-1-A, cell line HEC-1-A) | IC50 (HMCB, cell line HMCB, skin) | IC50 (HMCB, cell line HMCB) | IC50 (HT55, cell line HT55, large_intestine) | IC50 (HT55, cell line HT55) | IC50 (HT-144, cell line HT-144, skin) | IC50 (HT-144, cell line HT-144) | IC50 (HT-1080, cell line HT-1080, soft_tissue) | IC50 (HT-1080, cell line HT-1080) | IC50 (HT-1376, cell line HT-1376, urinary_tract) | IC50 (HT-1376, cell line HT-1376) | IC50 [7] | IC50 (Hs 294T, cell line Hs 294T) | IC50 [8] | IC50 (Hs 695T, cell line Hs 695T) | IC50 (Hs-578T, cell line Hs 578T, breast) | IC50 (Hs-578T, cell line Hs 578T) | IC50 (HuH-1, cell line huH-1, liver) | IC50 (HuH-1, huH-1 (liver)) | IC50 (HuP-T3, cell line HUP-T3, pancreas) | IC50 (HuP-T3, cell line HUP-T3) | IC50 (IGR-1, IGR-1 cells) | IC50 (IGR-1, cell line IGR-1, skin) | IC50 (IGROV-1, IGROV1 cells) | IC50 (IGROV-1, cell line IGROV1, ovary) | IC50 (IPC-298, IPC-298) | IC50 (IPC-298, cell line IPC-298) | IC50 (Ishikawa, Ishikawa (Heraklio) 02 ER- cells) | IC50 (Ishikawa, Ishikawa (Heraklio) 02 ER-) | IC50 (J82, J82) | IC50 (JIMT-1, JIMT-1) | IC50 (JIMT-1, JIMT-1 cells) | IC50 (JJN-3, JJN-3) | IC50 (JJN-3, cell line JJN-3) | IC50 (JVM-3, JVM-3) | IC50 (JVM-3, cell line JVM-3) | IC50 (K562, K-562) | IC50 (K562, cell line K-562) | IC50 (KLE) | IC50 (KM12, KM12) | IC50 (KM12, KM12 cells) | IC50 (KNS-62, KNS-62) | IC50 (KNS-62, KNS-62 cells) | IC50 (KYSE-30, KYSE-30 (oesophagus)) | IC50 [9] | IC50 (KYSE-270, KYSE-270 (oesophagus)) | IC50 (KYSE-270, cell line KYSE-270) | IC50 (KYSE-450, KYSE-450 (oesophagus)) | IC50 (KYSE-450, KYSE-450 cells) | IC50 (KYSE-510, KYSE-510 (oesophagus)) | IC50 (LAMA-84, LAMA-84 (haematopoietic_and_lymphoid_tissue)) | IC50 (LAMA-84, LAMA-84 cells) | IC50 (LCLC-97TM1, LCLC-97TM1 (lung)) | IC50 (LCLC-97TM1, LCLC-97TM1 cells) | IC50 (LCLC-103H, LCLC-103H (lung)) | IC50 (LCLC-103H, LCLC-103H cells) | IC50 [12] | IC50 (LOX IMVI, LOX IMVI (skin)) | IC50 (LOX IMVI, LOX IMVI cells) | IC50 [13] | IC50 (LS180, LS 180 cells) | IC50 (LXF-289, LXF-289 (lung)) | IC50 (LoVo, LoVo (large_intestine)) | IC50 (Lu-65, LU65 (lung)) | IC50 (MDA-MB-175-VII, MDA-MB-175-VII (breast)) | IC50 (MDA-MB-231, MDA-MB-231 (breast)) | IC50 (MDA-MB-231, cell line MDA-MB-231 (breast, NS)) | IC50 (MDA-MB-415, MDA-MB-415 (breast)) | IC50 (MDA-MB-436, MDA-MB-436 (breast)) | IC50 (MDA-MB-468, MDA-MB-468 (breast)) | IC50 (MDA-MB-468, MDA-MB-468 cells) | IC50 (MEL-JUSO, MEL-JUSO (skin)) | IC50 (MEL-JUSO, cell line MEL-JUSO (skin)) | IC50 (MG-63, cell line MG-63 (bone)) | IC50 (MG-63, cell line MG-63) | IC50 [16] | IC50 (MIA PaCa-2, cell line MIA PaCa-2 (pancreas))
23.8 µM: IC50 (HEL 92.1.7, cell line HEL 92.1.7, haematopoietic_and_lymphoid_tissue)
13.7 µM: IC50 (MCF7, MCF7 (breast)) | IC50 (MCF7, MCF7 cells)
16.1 µM: IC50 (Jurkat)
